# Measured values from publication PMC8449129, “Single tracer-based protocol for broad-spectrum kinase profiling in live cells with NanoBRET” (STAR Protocols, 2021).
# Experiments:
# Assay in all cases: cell-based
# Parameters in all cases: NanoBRET live-cell target engagement; % occupancy from displacement of tracer K10 on NanoLuc-kinase fusions, mean n=3
# Settings in all cases: HEK293, read-out: % inhibition
# HIPK2 = HIPK2 (Homo sapiens, UniProt Q9H2X6)
# Method in brief: (§1)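 Live-cell NanoBRET target engagement: cells expressing kinase–NanoLuc fusion with tracer treated with compound 2 h at 37 °C, 5% CO2. BRET read from donor (450 nm) and acceptor (610/630 nm) emission with 20 μM extracellular NanoLuc inhibitor; % occupancy calculated relative to tracer+DMSO and zero-BRET controls.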
# ERN2 = ERN2 (Homo sapiens, UniProt Q76MJ5)
# Method in brief: as §1
# MAPK8 = MAPK8 (Homo sapiens, UniProt P45983)
# Chain of MAPK8 (P45983 whole entry): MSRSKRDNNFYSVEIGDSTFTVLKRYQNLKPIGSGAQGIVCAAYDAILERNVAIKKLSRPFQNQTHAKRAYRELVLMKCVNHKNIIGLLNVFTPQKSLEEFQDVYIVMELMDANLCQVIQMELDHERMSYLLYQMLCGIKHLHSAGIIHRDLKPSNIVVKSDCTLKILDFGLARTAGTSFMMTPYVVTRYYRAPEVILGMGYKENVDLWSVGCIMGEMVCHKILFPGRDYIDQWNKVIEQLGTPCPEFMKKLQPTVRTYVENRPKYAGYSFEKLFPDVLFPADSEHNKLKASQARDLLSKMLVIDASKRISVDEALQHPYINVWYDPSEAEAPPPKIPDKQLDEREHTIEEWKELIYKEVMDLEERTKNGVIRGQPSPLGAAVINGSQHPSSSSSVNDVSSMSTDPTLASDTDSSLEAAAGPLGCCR
# Method in brief: as §1
# WEE1 = WEE1 (Homo sapiens, UniProt P30291)
# Chain of WEE1 (P30291 whole entry): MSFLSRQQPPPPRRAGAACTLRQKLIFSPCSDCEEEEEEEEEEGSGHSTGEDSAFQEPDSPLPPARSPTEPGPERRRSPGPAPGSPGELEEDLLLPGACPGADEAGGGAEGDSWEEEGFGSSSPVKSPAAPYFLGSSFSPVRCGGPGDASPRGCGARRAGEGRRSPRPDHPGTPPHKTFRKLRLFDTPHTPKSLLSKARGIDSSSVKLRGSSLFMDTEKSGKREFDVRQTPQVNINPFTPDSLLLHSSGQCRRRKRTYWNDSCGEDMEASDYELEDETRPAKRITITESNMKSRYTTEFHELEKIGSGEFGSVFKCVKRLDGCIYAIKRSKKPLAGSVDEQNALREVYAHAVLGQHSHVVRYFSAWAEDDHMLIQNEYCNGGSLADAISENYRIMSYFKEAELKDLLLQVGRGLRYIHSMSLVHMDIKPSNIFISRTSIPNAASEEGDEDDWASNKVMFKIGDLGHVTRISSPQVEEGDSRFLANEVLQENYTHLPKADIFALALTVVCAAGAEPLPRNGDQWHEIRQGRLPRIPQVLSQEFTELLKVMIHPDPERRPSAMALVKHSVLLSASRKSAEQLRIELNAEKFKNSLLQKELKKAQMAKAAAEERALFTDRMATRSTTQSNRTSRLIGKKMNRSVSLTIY
# Method in brief: as §1
# RPS6KA2 = RPS6KA2 (Homo sapiens, UniProt Q15349)
# Chain of RPS6KA2 (Q15349 whole entry): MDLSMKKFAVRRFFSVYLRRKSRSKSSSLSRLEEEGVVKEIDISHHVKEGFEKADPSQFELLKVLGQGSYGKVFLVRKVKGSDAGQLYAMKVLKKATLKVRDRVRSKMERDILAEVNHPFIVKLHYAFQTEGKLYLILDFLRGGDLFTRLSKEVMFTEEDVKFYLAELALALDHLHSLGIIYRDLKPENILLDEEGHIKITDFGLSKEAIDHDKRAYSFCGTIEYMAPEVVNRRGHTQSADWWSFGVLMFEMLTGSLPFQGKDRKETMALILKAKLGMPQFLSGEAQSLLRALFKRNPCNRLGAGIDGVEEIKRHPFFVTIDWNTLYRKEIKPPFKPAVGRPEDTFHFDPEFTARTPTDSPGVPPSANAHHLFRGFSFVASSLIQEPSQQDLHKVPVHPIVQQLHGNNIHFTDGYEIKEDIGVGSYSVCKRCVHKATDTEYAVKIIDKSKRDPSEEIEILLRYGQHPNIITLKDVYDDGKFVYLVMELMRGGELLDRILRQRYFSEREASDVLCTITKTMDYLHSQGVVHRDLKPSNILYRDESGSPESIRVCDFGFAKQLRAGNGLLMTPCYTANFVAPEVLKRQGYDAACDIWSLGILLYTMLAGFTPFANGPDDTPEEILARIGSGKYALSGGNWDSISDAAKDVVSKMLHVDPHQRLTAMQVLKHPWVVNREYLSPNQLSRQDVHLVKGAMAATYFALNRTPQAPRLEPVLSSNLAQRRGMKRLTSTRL
# Method in brief: as §1
# TBK1 = TBK1 (Homo sapiens, UniProt Q9UHD2)
# Method in brief: as §1
# BRAF(V600E) = BRAF(V600E) (Homo sapiens, UniProt P15056, V600E)
# Method in brief: as §1
# INSR = INSR (Homo sapiens, UniProt P06213)
# Method in brief: as §1
# PTK6 = PTK6 (Homo sapiens, UniProt Q13882)
# Method in brief: as §1
# MELK = MELK (Homo sapiens, UniProt Q14680)
# Method in brief: as §1
# FER = FER (Homo sapiens, UniProt P16591)
# Method in brief: as §1
# DCLK3 = DCLK3 (Homo sapiens, UniProt Q9C098)
# Method in brief: as §1
# JAK3 = JAK3 (Homo sapiens, UniProt P52333)
# Chain of JAK3 (P52333 whole entry): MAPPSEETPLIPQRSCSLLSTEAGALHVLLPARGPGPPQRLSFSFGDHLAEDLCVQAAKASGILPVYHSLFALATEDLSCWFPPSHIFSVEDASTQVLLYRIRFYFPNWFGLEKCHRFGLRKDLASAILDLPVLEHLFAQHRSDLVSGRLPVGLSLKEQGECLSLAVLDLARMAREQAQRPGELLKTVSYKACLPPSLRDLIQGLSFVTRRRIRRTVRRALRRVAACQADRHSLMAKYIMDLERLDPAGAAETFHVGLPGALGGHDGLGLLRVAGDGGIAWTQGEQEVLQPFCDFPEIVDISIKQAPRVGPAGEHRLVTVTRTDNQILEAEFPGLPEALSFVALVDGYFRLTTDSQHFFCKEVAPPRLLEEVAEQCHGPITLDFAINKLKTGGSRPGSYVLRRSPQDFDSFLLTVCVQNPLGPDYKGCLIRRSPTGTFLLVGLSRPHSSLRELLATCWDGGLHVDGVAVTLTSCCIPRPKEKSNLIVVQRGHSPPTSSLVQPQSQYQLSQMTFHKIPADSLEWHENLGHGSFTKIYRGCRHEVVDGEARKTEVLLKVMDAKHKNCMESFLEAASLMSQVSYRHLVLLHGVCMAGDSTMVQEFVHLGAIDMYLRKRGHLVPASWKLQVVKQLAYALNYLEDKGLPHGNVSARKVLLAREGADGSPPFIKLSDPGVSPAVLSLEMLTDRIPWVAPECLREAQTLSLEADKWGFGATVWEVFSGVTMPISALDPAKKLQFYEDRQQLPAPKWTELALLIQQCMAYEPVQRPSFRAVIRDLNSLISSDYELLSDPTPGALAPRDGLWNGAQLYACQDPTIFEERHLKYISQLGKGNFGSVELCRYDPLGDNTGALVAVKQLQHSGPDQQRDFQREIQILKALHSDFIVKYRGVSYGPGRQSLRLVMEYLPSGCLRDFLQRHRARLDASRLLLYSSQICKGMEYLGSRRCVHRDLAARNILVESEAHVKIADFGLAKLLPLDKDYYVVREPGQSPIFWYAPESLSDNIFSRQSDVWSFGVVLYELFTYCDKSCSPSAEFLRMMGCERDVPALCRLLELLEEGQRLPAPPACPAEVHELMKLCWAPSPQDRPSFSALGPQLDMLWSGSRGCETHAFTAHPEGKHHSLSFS
# Method in brief: as §1
# IRAK4 = IRAK4 (Homo sapiens, UniProt Q9NWZ3)
# Chain of IRAK4 (Q9NWZ3 whole entry): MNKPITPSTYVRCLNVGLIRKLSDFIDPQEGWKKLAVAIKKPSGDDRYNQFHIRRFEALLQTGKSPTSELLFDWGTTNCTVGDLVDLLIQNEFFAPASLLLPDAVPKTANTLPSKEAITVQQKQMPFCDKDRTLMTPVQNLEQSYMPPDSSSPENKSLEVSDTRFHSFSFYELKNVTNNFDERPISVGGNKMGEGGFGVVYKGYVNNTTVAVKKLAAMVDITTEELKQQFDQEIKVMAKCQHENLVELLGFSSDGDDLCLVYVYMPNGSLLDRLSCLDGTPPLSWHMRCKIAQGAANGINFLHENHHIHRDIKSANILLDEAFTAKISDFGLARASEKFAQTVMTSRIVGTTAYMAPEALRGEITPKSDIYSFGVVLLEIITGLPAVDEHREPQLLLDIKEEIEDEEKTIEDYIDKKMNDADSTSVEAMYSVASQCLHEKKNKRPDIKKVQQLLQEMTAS
# Method in brief: as §1
# HIPK3 = HIPK3 (Homo sapiens, UniProt Q9H422)
# Method in brief: as §1
# PAK6 = PAK6 (Homo sapiens, UniProt Q9NQU5)
# Method in brief: as §1
# MAPK9 = MAPK9 (Homo sapiens, UniProt P45984)
# Method in brief: as §1
# STK36 = STK36 (Homo sapiens, UniProt Q9NRP7)
# Chain of STK36 (Q9NRP7 whole entry): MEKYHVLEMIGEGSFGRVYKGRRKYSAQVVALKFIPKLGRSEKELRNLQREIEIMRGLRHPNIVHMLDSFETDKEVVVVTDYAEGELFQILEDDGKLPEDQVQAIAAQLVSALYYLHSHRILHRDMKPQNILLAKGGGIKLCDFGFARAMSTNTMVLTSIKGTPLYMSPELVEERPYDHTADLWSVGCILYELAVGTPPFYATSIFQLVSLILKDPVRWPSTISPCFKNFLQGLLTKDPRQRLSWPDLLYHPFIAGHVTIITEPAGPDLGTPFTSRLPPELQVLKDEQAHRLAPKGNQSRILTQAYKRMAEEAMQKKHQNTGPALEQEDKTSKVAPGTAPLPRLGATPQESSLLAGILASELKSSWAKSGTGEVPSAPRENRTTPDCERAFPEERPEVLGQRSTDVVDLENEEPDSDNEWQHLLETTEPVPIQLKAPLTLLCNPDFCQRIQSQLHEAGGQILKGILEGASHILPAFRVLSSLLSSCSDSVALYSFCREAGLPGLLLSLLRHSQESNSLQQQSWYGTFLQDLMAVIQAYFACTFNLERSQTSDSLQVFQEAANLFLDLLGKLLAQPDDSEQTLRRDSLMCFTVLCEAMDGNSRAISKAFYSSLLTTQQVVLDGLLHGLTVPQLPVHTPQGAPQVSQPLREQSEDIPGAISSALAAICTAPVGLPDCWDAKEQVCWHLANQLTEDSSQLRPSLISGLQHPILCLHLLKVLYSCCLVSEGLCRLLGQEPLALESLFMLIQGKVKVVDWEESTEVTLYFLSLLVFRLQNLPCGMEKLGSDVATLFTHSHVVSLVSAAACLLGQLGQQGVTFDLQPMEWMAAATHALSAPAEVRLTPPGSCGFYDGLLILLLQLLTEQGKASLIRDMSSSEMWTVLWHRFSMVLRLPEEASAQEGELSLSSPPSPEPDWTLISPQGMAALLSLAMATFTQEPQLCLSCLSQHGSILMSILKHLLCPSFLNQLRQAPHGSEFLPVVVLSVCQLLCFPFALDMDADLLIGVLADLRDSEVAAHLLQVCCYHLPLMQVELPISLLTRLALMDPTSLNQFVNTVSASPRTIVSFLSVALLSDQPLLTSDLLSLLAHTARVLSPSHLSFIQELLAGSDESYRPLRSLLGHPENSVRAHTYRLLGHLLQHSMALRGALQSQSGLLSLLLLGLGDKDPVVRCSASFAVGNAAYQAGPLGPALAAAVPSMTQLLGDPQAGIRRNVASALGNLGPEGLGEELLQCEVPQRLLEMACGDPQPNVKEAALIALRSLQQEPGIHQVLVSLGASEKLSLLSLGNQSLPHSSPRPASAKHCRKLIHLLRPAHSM
# Method in brief: as §1
compound,measurement,setting,value
C[C@@H](Oc1cc(-c2cnn(C3CCNCC3)c2)cnc1N)c1c(Cl)ccc(F)c1Cl [crizotinib],inhibition at 1 µM,HIPK2,5%
same,inhibition at 1 µM,ERN2,-9%
same,inhibition at 1 µM,MAPK8,-16%
same,inhibition at 1 µM,WEE1,-9%
same,inhibition at 1 µM,RPS6KA2,-7%
same,inhibition at 1 µM,TBK1,-7%
same,inhibition at 1 µM,BRAF(V600E),-4%
same,inhibition at 1 µM,INSR,20%
same,inhibition at 1 µM,PTK6,-2%
same,inhibition at 1 µM,MELK,-2%
same,inhibition at 1 µM,FER,16%
same,inhibition at 1 µM,DCLK3,0%
same,inhibition at 1 µM,JAK3,2%
same,inhibition at 1 µM,IRAK4,6%
same,inhibition at 1 µM,HIPK3,-4%
same,inhibition at 1 µM,PAK6,-7%
same,inhibition at 1 µM,MAPK9,-11%
same,inhibition at 1 µM,STK36,-6%
